Source: US8044036B2 (priority 2005, dated 2011)

Tests used:
Septoria tritici = Septoria tritici test (in vitro)/microtitre plates; format: cell-based; conditions: application rate 0.3 ppm; 5 days incubation in PDB; 100% = no fungal growth
Pyricularia oryzae = format: cell-based; conditions: application rate 3 ppm; 5 days incubation in PDB; 100% = no fungal growth

C=CCNC(=O)c1c([Si](C)(C)C)sc(C)c1C [silthiofam, N-alkyl-4,5-dimethyl-2-(trimethylsilyl)thiophene-3-carboxamide]
Efficacy in % found (Septoria tritici): 10%
Efficacy in % found (Pyricularia oryzae): 29%

OC(Cc1ccccc1Cl)(Cn1nc[nH]c1=S)C1(Cl)CC1 (racemic) [prothioconazole, 2-[(2RS)-2-(1-chlorocyclopropyl)-3-(2-chlorophenyl)-2-hydroxy-propyl]-2H-1,2,4-triazole-3(4H)thione]
Efficacy in % found (Septoria tritici): 21%
Efficacy in % found (Pyricularia oryzae): 23%
